Reference: ChEMBL document CHEMBL3885861, “Open TG-GATES”

Species: Rattus norvegicus
Experiment: Open TG-GATES - Regimen: Daily Repeat
Assay type: toxicity, organism-based, Sprague-Dawley
Parameters: regimen Daily Repeat, gender Male, age 6 weeks
Conditions: in vivo, po, route gavage; for ALT / AST / BUN / CRE / Ca / Cl / DBIL / GLC / IP / K / LDH / Na / PL / RALB / TBIL / TC / TG / TP / gamma-GTP / A/G / ALP: tissue Plasma; for APTT / Bas / Eos / Fbg / Hb / Ht / Lym / MCH / MCHC / MCV / Mono / Neu / PT / Plat / RBC / Ret / WBC: tissue Blood; for KIDNEY_L / KIDNEY_R / KIDNEY_TOTAL: tissue Kidney; for LIVER: tissue Liver
[1] = 30 mg/kg, […], dose level Low, time 14 day
[2] = 30 mg/kg, […], dose level Low, time 28 day
[3] = 100 mg/kg, 72 h, dose level Middle, time 3 day
[4] = 100 mg/kg, […], dose level Middle, time 7 day
[5] = 100 mg/kg, […], dose level Middle, time 14 day
[6] = 100 mg/kg, […], dose level Middle, time 28 day
[7] = 300 mg/kg, 72 h, dose level High, time 3 day
[8] = 300 mg/kg, […], dose level High, time 7 day
[9] = 300 mg/kg, […], dose level High, time 14 day

## CCc1cc(C(N)=S)ccn1 [ETHIONAMIDE]
[1]
  ALT: 34.8 IU/L
  AST: 62.4 IU/L
  BUN: 17.6 mg/dL
  CRE: 0.5 mg/dL
  Ca: 10.8 mg/dL
  Cl: 104.4 meq/L
  DBIL: 0.026 mg/dL
  GLC: 206.6 mg/dL
  IP: 7.2 mg/dL
  K: 4.4 meq/L
  LDH: 95.4 IU/L
  Na: 142.2 meq/L
  PL: 152.2 mg/dL
  RALB: 4.1 g/dL
  TBIL: 0.3 mg/dL
  TC: 70.4 mg/dL
  TG: 107.6 mg/dL
  TP: 5.9 g/dL
  gamma-GTP: 1.8 IU/L
[2]
  A/G: 2.2
  ALP: 680.6 IU/L
  ALT: 35.8 IU/L
  AST: 60 IU/L
  BUN: 21.2 mg/dL
  CRE: 0.7 mg/dL
  Ca: 10.1 mg/dL
  Cl: 106 meq/L
  DBIL: 0.022 mg/dL
  GLC: 198.8 mg/dL
  IP: 6.3 mg/dL
  K: 4.6 meq/L
  LDH: 95.2 IU/L
  Na: 140.4 meq/L
  PL: 143.8 mg/dL
  RALB: 4.1 g/dL
  TBIL: 0.3 mg/dL
  TC: 71.4 mg/dL
  TG: 129 mg/dL
  TP: 6 g/dL
  gamma-GTP: 1.6 IU/L
[3]
  TERMINAL_BW: 233.1 g
  APTT: 17.5 s
  Bas: 0%
  Eos: 1%
  Fbg: 209 mg/dL
  Hb: 14.5 g/dL
  Ht: 42.6%
  Lym: 67%
  MCH: 21.7 pg
  MCHC: 33.9%
  MCV: 64 fL
  Mono: 10.8%
  Neu: 21.6%
  PT: 11.6 s
  Plat: 130 x10_4/uL
  RBC: 666.2 x10_4/ul
  Ret: 10.3%
  WBC: 119.1 x10_2/uL
  KIDNEY_L: 1.1 g
  KIDNEY_R: 1.1 g
  KIDNEY_TOTAL: 2.2 g
  LIVER: 12.4 g
  A/G: 2
  ALP: 951.2 IU/L
  ALT: 41.6 IU/L
  AST: 65.6 IU/L
  BUN: 17.4 mg/dL
  CRE: 0.5 mg/dL
  Ca: 10.5 mg/dL
  Cl: 104.2 meq/L
  DBIL: 0.032 mg/dL
  GLC: 197.6 mg/dL
  IP: 7.1 mg/dL
  K: 4.7 meq/L
  LDH: 94.2 IU/L
  Na: 140.8 meq/L
  PL: 125 mg/dL
  RALB: 3.6 g/dL
  TBIL: 0.2 mg/dL
  TC: 65.4 mg/dL
  TG: 59.2 mg/dL
  TP: 5.4 g/dL
  gamma-GTP: 1 IU/L
[4]
  TERMINAL_BW: 267.6 g
  APTT: 17 s
  Bas: 0%
  Eos: 1%
  Fbg: 212 mg/dL
  Hb: 14.2 g/dL
  Ht: 42.3%
  Lym: 68.6%
  MCH: 20.9 pg
  MCHC: 33.7%
  MCV: 62.1 fL
  Mono: 8.6%
  Neu: 21.6%
  PT: 11.7 s
  Plat: 148.8 x10_4/uL
  RBC: 681.8 x10_4/ul
  Ret: 3.6%
  WBC: 136.5 x10_2/uL
  KIDNEY_L: 1.1 g
  KIDNEY_R: 1.2 g
  KIDNEY_TOTAL: 2.4 g
  LIVER: 13.1 g
  A/G: 1.8
  ALP: 899 IU/L
  ALT: 40.8 IU/L
  AST: 66.8 IU/L
  BUN: 15.8 mg/dL
  CRE: 0.4 mg/dL
  Ca: 10.4 mg/dL
  Cl: 104 meq/L
  DBIL: 0.088 mg/dL
  GLC: 194.8 mg/dL
  IP: 6.7 mg/dL
  K: 4.6 meq/L
  LDH: 106.2 IU/L
  Na: 139.8 meq/L
  PL: 122.2 mg/dL
  RALB: 3.7 g/dL
  TBIL: 0.3 mg/dL
  TC: 62 mg/dL
  TG: 52.2 mg/dL
  TP: 5.7 g/dL
  gamma-GTP: 2.4 IU/L
[5]
  TERMINAL_BW: 316.7 g
  APTT: 17.7 s
  Bas: 0%
  Eos: 1.4%
  Fbg: 221 mg/dL
  Hb: 15.2 g/dL
  Ht: 44.6%
  Lym: 63.8%
  MCH: 21.4 pg
  MCHC: 34.2%
  MCV: 62.6 fL
  Mono: 4.4%
  Neu: 30.4%
  PT: 11.8 s
  Plat: 131.1 x10_4/uL
  RBC: 712 x10_4/ul
  Ret: 4.9%
  WBC: 203.6 x10_2/uL
  KIDNEY_L: 1.4 g
  KIDNEY_R: 1.4 g
  KIDNEY_TOTAL: 2.8 g
  LIVER: 16 g
  A/G: 2.6
  ALP: 878.4 IU/L
  ALT: 33.8 IU/L
  AST: 58.8 IU/L
  BUN: 16.8 mg/dL
  CRE: 0.5 mg/dL
  Ca: 10.5 mg/dL
  Cl: 105 meq/L
  DBIL: 0.034 mg/dL
  GLC: 196.8 mg/dL
  IP: 6.6 mg/dL
  K: 4.4 meq/L
  LDH: 82 IU/L
  Na: 142.2 meq/L
  PL: 125.2 mg/dL
  RALB: 4.2 g/dL
  TBIL: 0.3 mg/dL
  TC: 60.6 mg/dL
  TG: 65.8 mg/dL
  TP: 5.8 g/dL
  gamma-GTP: 1.4 IU/L
[6]
  TERMINAL_BW: 405.2 g
  APTT: 16.9 s
  Bas: 0%
  Eos: 1.6%
  Fbg: 228.4 mg/dL
  Hb: 15.9 g/dL
  Ht: 46.2%
  Lym: 72.4%
  MCH: 20.4 pg
  MCHC: 34.4%
  MCV: 59.3 fL
  Mono: 4.8%
  Neu: 21.2%
  PT: 11.7 s
  Plat: 140.7 x10_4/uL
  RBC: 780.4 x10_4/ul
  Ret: 7.8%
  WBC: 170.4 x10_2/uL
  KIDNEY_L: 1.6 g
  KIDNEY_R: 1.6 g
  KIDNEY_TOTAL: 3.2 g
  LIVER: 18.7 g
  A/G: 2.1
  ALP: 579.4 IU/L
  ALT: 39.4 IU/L
  AST: 56 IU/L
  BUN: 19 mg/dL
  CRE: 0.6 mg/dL
  Ca: 9.9 mg/dL
  Cl: 104.4 meq/L
  DBIL: 0.016 mg/dL
  GLC: 196 mg/dL
  IP: 5.9 mg/dL
  K: 4.6 meq/L
  LDH: 86.2 IU/L
  Na: 140 meq/L
  PL: 121.6 mg/dL
  RALB: 4.2 g/dL
  TBIL: 0.3 mg/dL
  TC: 62.4 mg/dL
  TG: 60.4 mg/dL
  TP: 6.2 g/dL
  gamma-GTP: 1.8 IU/L
[7]
  TERMINAL_BW: 204.1 g
  APTT: 20 s
  Bas: 0%
  Eos: 1.4%
  Fbg: 161.6 mg/dL
  Hb: 17.1 g/dL
  Ht: 50.4%
  Lym: 59.8%
  MCH: 21.7 pg
  MCHC: 34.1%
  MCV: 63.5 fL
  Mono: 6.4%
  Neu: 32.6%
  PT: 16 s
  Plat: 119.1 x10_4/uL
  RBC: 794.4 x10_4/ul
  Ret: 13.3%
  WBC: 115.4 x10_2/uL
  KIDNEY_L: 1 g
  KIDNEY_R: 1 g
  KIDNEY_TOTAL: 2 g
  LIVER: 10.3 g
  A/G: 2.3
  ALP: 1108.2 IU/L
  ALT: 72.6 IU/L
  AST: 190.6 IU/L
  BUN: 12.2 mg/dL
  CRE: 0.5 mg/dL
  Ca: 9.7 mg/dL
  Cl: 106.2 meq/L
  DBIL: 0.1 mg/dL
  GLC: 172.6 mg/dL
  IP: 7.6 mg/dL
  K: 4.6 meq/L
  LDH: 244 IU/L
  Na: 139.4 meq/L
  PL: 82.8 mg/dL
  RALB: 3.4 g/dL
  TBIL: 0.3 mg/dL
  TC: 46.4 mg/dL
  TG: 16 mg/dL
  TP: 4.9 g/dL
  gamma-GTP: 1.4 IU/L
[8]
  TERMINAL_BW: 227.8 g
  APTT: 21.4 s
  Bas: 0.3%
  Eos: 3.7%
  Fbg: 206 mg/dL
  Hb: 16 g/dL
  Ht: 46.9%
  Lym: 44.7%
  MCH: 20.2 pg
  MCHC: 34.1%
  MCV: 59.2 fL
  Mono: 9%
  Neu: 42%
  PT: 14.7 s
  Plat: 109.9 x10_4/uL
  RBC: 792.3 x10_4/ul
  Ret: 2.8%
  WBC: 127.9 x10_2/uL
  KIDNEY_L: 1 g
  KIDNEY_R: 1 g
  KIDNEY_TOTAL: 2.1 g
  LIVER: 11.3 g
  A/G: 1.7
  ALP: 739.3 IU/L
  ALT: 66 IU/L
  AST: 129 IU/L
  BUN: 12.7 mg/dL
  CRE: 0.4 mg/dL
  Ca: 10.1 mg/dL
  Cl: 102.3 meq/L
  DBIL: 0.0933 mg/dL
  GLC: 143 mg/dL
  IP: 7.2 mg/dL
  K: 3.9 meq/L
  LDH: 397.7 IU/L
  Na: 136.7 meq/L
  PL: 123.7 mg/dL
  RALB: 3.6 g/dL
  TBIL: 0.3 mg/dL
  TC: 95.3 mg/dL
  TG: 22.3 mg/dL
  TP: 5.7 g/dL
  gamma-GTP: 3.7 IU/L
[9]
  Bas: 0%
  MCHC: 34.2%
  KIDNEY_L: 1 g
  KIDNEY_TOTAL: 2.1 g
  TBIL: 0.3 mg/dL
  gamma-GTP: 7 IU/L
